Read-outs that look alike come from different tables or passages of the source.
Tests used:
mouse cGAS = molecular target: T1, mouse cGAS (Mus musculus, UniProt Q8C6L5); test: RapidFire mass spectrometry (RF-MS) cGAS enzymatic assay, cGAMP product formation; assay type: biochemical; settings: for inhibition at 12.5 µM: read-out: % inhibition at 12.5 µM; for effect of structural modification on cGAS inhibitory potency: compared with RU.365
T1 construct: recombinant full-length mouse cGAS in reaction buffer; His6-SUMO (N, cleaved yes); made in house; host or cells: E. coli BL21(DE3) RIL
Experimental: The liquid was collected at the well bottom using centrifugation for 30 s at 180×g. […] Plates were centrifuged for 30 s at 180×g to collect all liquid at the bottom of the wells. […] The reaction was stopped by addition of 65 µl of 0.5% (v/v) formic acid per well. The plates were centrifuged for 30 s at 180×g and sealed with a Velocity11 PlateLoc thermal plate sealer.
The solvent used for loading/washing process was an aqueous solution of 5 mM ammonium acetate, pH 10. […] Each sample of approximately 35 µl were aspirated from a 384-well plate and separated using a Graphitic carbon Type D cartridge. After each sample was loaded onto the cartridge it was washed for 4 s at 1.5 ml min^−1 using the aqueous solvent. ATP, GTP and cGAMP were eluted for 5 s using the organic solvent at a flow rate of 1.5 ml min^−1. The cartridge was then re-equilibrated with the aqueous solvent for 5 s at a flow rate of 1.5 ml min^−1. All samples were analyzed using a negative ionization mode in the mass spectrometer, with a gas temperature of 350 °C, nebulizer pressure of 35 psig, gas flow rate of 15 l min^−1. […] The Agilent RapidFire Integrator software was used to calculate the area under the curve (AUC) of the extracted ion counts for each analyte. Data points represent values of product formation. Catalytic rates expressed as percent product formation were calculated using the AUC of cGAMP and using the AUC’s of ATP and GTP to normalize for variations in the capacity of the solid phase extraction column during a screening run, as shown in the following formula: product formation (%) = [(AUCcGAMP × 100)/(AUCcGAMP + ½ AUCATP + ½ AUCGTP)].
To determine the percent inhibition of mouse cGAS the data was normalized against the positive control (column 24) and negative control (column 23). […] The quality of the screen was assessed by Z′ factor[57] calculated as follows: Z′ = 1−[3∗(standard deviation positive control + standard deviation negative control)/(average positive control—average negative control)].

45-bp dsDNA = test: DNA intercalation: acridine orange displacement from dsDNA by fluorescence polarization; assay type: binding; settings: Supplementary Table 2; for Polarization: compound 30 µM; for % intercalation at 30 µM: acridine orange displacement compared to mitoxantrone
Experimental: Ten microliters of HEN buffer (10 mM HEPES pH 7.5, 1 mM EDTA pH 7.5, 100 mM NaCl) were dispensed per well using a Thermo Multidrop Combi dispenser (Thermo Scientific). The liquid was collected at the well bottom using centrifugation for 30 s at 180×g. […] The final concentration of compounds in the assay was 30 µM. […] The liquid was collected at the well bottom using centrifugation for 30 s at 180×g. […] The liquid was collected at the well bottom using centrifugation for 30 s at 180 × g and the plates were incubated for 30 min. Mitoxantrone, a known DNA intercalator was used at 50 µM as a positive control, while DMSO alone was used as negative control. FP was measured using a Biotek Synergy Neo plate reader. […] All FP values are expressed in millipolarization (mP) units. The mP values were calculated using the equation mP = 1000 × [(I S−I SB)−(I P−I PB)]/[I S—I SB) + (I P−I PB)], where I S and […] to the parallel and perpendicular emission intensity, respectively, and I SB and I SP corresponds to parallel emission intensity perpendicular emission intensity of the buffer, respectively. The experimental G-factor, defined as G = I S/I P, was set to 1.0 in all experiments.

[1] = Supplementary Table 4, analogs of RU166365, m-cGAS inhibition, read-out: IC50
[2] = Supplementary Table 2, compound 12.5 µM
[3] = Supplementary Table 2, batch of compounds stored in the screening library, read-out: IC50
[4] = Supplementary Table 3, analogs more potent than RU166365, read-out: IC50

T1 sequence (Q8C6L5 whole entry): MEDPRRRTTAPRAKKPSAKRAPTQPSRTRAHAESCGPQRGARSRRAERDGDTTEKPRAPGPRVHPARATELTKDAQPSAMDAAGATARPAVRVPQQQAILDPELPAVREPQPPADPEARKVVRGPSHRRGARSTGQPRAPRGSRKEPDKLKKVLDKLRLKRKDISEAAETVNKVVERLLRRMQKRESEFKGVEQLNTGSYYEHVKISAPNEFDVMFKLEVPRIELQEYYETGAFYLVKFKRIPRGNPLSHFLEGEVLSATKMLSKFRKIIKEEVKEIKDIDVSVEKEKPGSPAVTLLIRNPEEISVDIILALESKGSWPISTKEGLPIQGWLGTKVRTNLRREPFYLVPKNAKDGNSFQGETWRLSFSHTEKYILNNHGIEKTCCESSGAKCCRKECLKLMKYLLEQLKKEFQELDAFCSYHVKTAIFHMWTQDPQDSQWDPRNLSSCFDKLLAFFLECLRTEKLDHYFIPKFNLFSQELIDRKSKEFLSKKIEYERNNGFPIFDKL

## COc1cccc2c1C(c1c(C)nn(-c3nc4ccccc4[nH]3)c1O)OC2=O (stereo not drawn) [RU320503]
Mouse cGAS; [1]
  IC50: > 25 µM

## Nc1nc2c(ncn2[C@@H]2O[C@H](COP(=O)(O)OP(=O)(O)OP(=O)(O)O)[C@@H](O)[C@H]2O)c(=O)[nH]1 [GTP]
Mouse cGAS; substrate of mouse cGAS, no inhibitor
  kcat: 0.383 s⁻¹
Mouse cGAS; substrate of mouse cGAS, allosteric sigmoidal fitting, no inhibitor
  Km: 96.4 ± 5.1 µM

## N=C(N)NN=C1C=CC(=NNC(N)=S)C=C1 [RU187428]
Mouse cGAS
  IC50: 9.93 µM
Mouse cGAS; [2]
  inhibition at 12.5 µM: 79%
45-bp dsDNA
  Polarization: 164 mP

## OCc1cn(-c2ccccc2Cl)nn1 [RU219771]
Mouse cGAS; [3]
  IC50: 1.27 µM
Mouse cGAS; [2]
  inhibition at 12.5 µM: 94%
45-bp dsDNA
  % intercalation at 30 µM: -1.3%
  Polarization: 253 mP

## Cc1cc(O)n(-c2nc3ccccc3[nH]2)n1 [RU281324]
Mouse cGAS; [1]
  IC50: > 25 µM

## COc1cccc2c1C(=O)c1c(O)c3c(c(O)c1C2=O)C[C@@](O)(C(=O)CO)C[C@@H]3O[C@H]1C[C@H](N)[C@H](O)[C@H](C)O1 [RU24114]
Mouse cGAS
  IC50: 0.82 µM
Mouse cGAS; [2]
  inhibition at 12.5 µM: 96%
45-bp dsDNA
  Polarization: 53 mP

## Cc1nn(-c2nc3ccccc3[nH]2)c(O)c1C1OC(=O)c2c(Br)cccc21 (stereo not drawn) [RU320463]
Mouse cGAS; [1]
  IC50: 2.76 µM

## CCCc1c(C)nn(-c2nc3ccccc3[nH]2)c1O [RU166418]
Mouse cGAS; [1]
  IC50: > 25 µM

## CC(=O)[C@]1(O)Cc2c(O)c3c(c(O)c2[C@@H](O[C@H]2C[C@H](N)[C@H](O)[C@H](C)O2)C1)C(=O)c1ccccc1C3=O [RU84314]
Mouse cGAS; [3]
  IC50: 1.45 µM
Mouse cGAS; [2]
  inhibition at 12.5 µM: 90%
45-bp dsDNA
  % intercalation at 30 µM: 87.2%
  Polarization: 72 mP

## CC(=O)N1CCc2nn(-c3nc4ccccc4[nH]3)c(C)c2C1c1ccccc1 (stereo not drawn) [RU320518]
Mouse cGAS; [1]
  IC50: > 25 µM

## O=C1CN2C(=C1c1ccccc1)NC(=O)c1sc3ccccc3c12 [RU207450]
Mouse cGAS; [3]
  IC50: 9.69 µM
Mouse cGAS; [2]
  inhibition at 12.5 µM: 70%
45-bp dsDNA
  Polarization: 274 mP

## Cc1nn(-c2nc3ccccc3[nH]2)c(O)c1C1OC(=O)c2cccc(C(=O)O)c21 (stereo not drawn) [RU320516]
Mouse cGAS; [1]
  IC50: > 25 µM

## Oc1c(Cl)cc(Cl)c(Cl)c1Cc1c(O)c(Cl)cc(Cl)c1Cl [RU161]
Mouse cGAS
  IC50: 0.39 µM
  inhibition at 12.5 µM: 93%
45-bp dsDNA
  % intercalation at 30 µM: 69.6%
  Polarization: 108 mP

## Cc1nnc(NC(=O)c2ccc(S(=O)(=O)Nc3cccc(C(F)(F)F)c3)o2)s1 [RU174368]
Mouse cGAS; [3]
  IC50: 7.47 µM
Mouse cGAS; [2]
  inhibition at 12.5 µM: 76%
45-bp dsDNA
  % intercalation at 30 µM: 5.6%
  Polarization: 239 mP

## Cc1nn(-c2nc3ccccc3[nH]2)c(O)c1C1OC(=O)c2ccc(Br)cc21 (stereo not drawn) [RU320464]
Mouse cGAS; [1]
  IC50: 2.24 µM

## O=C(Nc1ncc([N+](=O)[O-])s1)c1cccs1 [RU187339]
Mouse cGAS; [3]
  IC50: 6.62 µM
Mouse cGAS; [2]
  inhibition at 12.5 µM: 86%
45-bp dsDNA
  Polarization: 274 mP

## Cc1nn(-c2nc3ccc(Br)cc3[nH]2)c(O)c1C1OC(=O)c2ccccc21 (stereo not drawn) [RU320462]
Mouse cGAS; [4]
  IC50: 0.64 µM
Mouse cGAS
  effect of structural modification on cGAS inhibitory potency: increased inhibitory potency

## O=C(CCl)Nc1nc(-c2c[nH]c3ccccc23)cs1 [RU114757]
Mouse cGAS; Fig. 1e, four prioritized screening hits, confirmed with independent lots of compound, read-out: IC50
  IC50: 1.4 µM
Mouse cGAS; [3]
  IC50: 5.38 µM
Mouse cGAS; [2]
  inhibition at 12.5 µM: 72%
45-bp dsDNA
  % intercalation at 30 µM: -10.1%
  Polarization: 271 mP

## Cc1ccc(-c2cc(O)n(-c3nc4ccccc4[nH]3)n2)cc1 [RU281319]
Mouse cGAS; [1]
  IC50: > 25 µM

## N#CCC(=O)Nc1sc2c(c1C(N)=O)CCCC2 [RU93687]
Mouse cGAS; [3]
  IC50: 9.11 µM
Mouse cGAS; [2]
  inhibition at 12.5 µM: 91%
45-bp dsDNA
  % intercalation at 30 µM: -5.8%
  Polarization: 263 mP

## Cc1nn(-c2nc3cccc(Cl)c3[nH]2)c(O)c1C1OC(=O)c2ccccc21 (stereo not drawn) [RU320520]
Mouse cGAS; [4]
  IC50: 0.62 µM
Mouse cGAS
  effect of structural modification on cGAS inhibitory potency: increased inhibitory potency

## Cc1nn(-c2nc3ccccc3[nH]2)c(O)c1C1NC(=O)c2ccccc21 (stereo not drawn) [RU320465]
Mouse cGAS; [1]
  IC50: > 25 µM
Mouse cGAS
  effect of structural modification on cGAS inhibitory potency: abolished inhibitory activity

## COc1ccc2c(c1)C(=O)OC2c1c(C)nn(-c2nc3ccccc3[nH]2)c1O (stereo not drawn) [RU320468]
Mouse cGAS; [4]
  IC50: 1.43 µM
Mouse cGAS
  effect of structural modification on cGAS inhibitory potency: only minor variations in potency

## Cc1nn(-c2nc3cccc(C)c3[nH]2)c(O)c1C1OC(=O)c2ccccc21 (stereo not drawn) [RU320519]
Mouse cGAS; [4]
  IC50: 1.16 µM
Mouse cGAS
  effect of structural modification on cGAS inhibitory potency: increased inhibitory potency
